What was measured:
Assay in all cases: Test C pre/postemergence
Type in all cases: in vivo
[1] = system: eastern black nightshade (Solanum ptycanthum); conditions: Preemergence
Method in brief: (§1)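 Percent control is a visual rating (0 none, 100 complete) taken against untreated plants after 12 to 14 days of greenhouse growth. Applications were made preemergence to seeded pots and postemergence to plants at the 1- to 4-leaf stage, in a non-phytotoxic surfactant-containing solvent.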

[2] = system: bermudagrass (Cynodon dactylon); conditions: for Bermudagrass plant response rating: scale 0 to 100 (0 no effect, 100 complete control)
Method in brief: as §1

[3] = system: common ragweed (Ambrosia elatior); conditions: for Ragweed plant response rating: scale 0 to 100 (0 no effect, 100 complete control)
Method in brief: as §1

[4] = 62 g ai/ha, scale 0 to 100, 0 no effect, 100 complete control
[5] = Postemergence, 250 g ai/ha, scale 0 to 100
[6] = Postemergence, 500 g ai/ha, scale 0 to 100
[7] = Preemergence, 62 g ai/ha, scale 0 to 100, 0 no effect, 100 complete control
[8] = Preemergence, 125 g ai/ha, scale 0 to 100
[9] = Preemergence, 250 g ai/ha, scale 0 to 100
[10] = Preemergence, 500 g ai/ha, scale 0 to 100
[11] = 31 g ai/ha, scale 0 to 100, 0 no effect, 100 complete control
[12] = Preemergence, 31 g ai/ha, scale 0 to 100, 0 no effect, 100 complete control

Compound: Nc1nc(C2CC2)nc(C=NO)c1Br [Compound 27]
- Plant response rating, Nightshade [1, 4]: 0
- Plant response rating, Nightshade ([1]; 125 g ai/ha, scale 0 to 100): 70
- Plant response rating, Nightshade ([1]; 250 g ai/ha, scale 0 to 100): 100
- Plant response rating, Nightshade ([1]; 500 g ai/ha, scale 0 to 100): 100
- Bermudagrass plant response rating ([2]; Postemergence, 62 g ai/ha): 0
- Bermudagrass plant response rating ([2]; Postemergence, 125 g ai/ha): 0
- Plant response rating, Bermudagrass [2, 5]: 0
- Plant response rating, Bermudagrass [2, 6]: 30
- Plant response rating, Bermudagrass [2, 7]: 0
- Plant response rating, Bermudagrass [2, 8]: 0
- Plant response rating, Bermudagrass [2, 9]: 0
- Plant response rating, Bermudagrass [2, 10]: 0
- Ragweed plant response rating ([3]; Postemergence, 62 g ai/ha): 5
- Ragweed plant response rating ([3]; Postemergence, 125 g ai/ha): 20
- Plant response rating, Ragweed [3, 5]: 40
- Plant response rating, Ragweed [3, 6]: 50
- Plant response rating, Ragweed [3, 7]: 20
- Plant response rating, Ragweed [3, 8]: 65
- Plant response rating, Ragweed [3, 9]: 85
- Plant response rating, Ragweed [3, 10]: 95

Compound: COC(=O)Cc1nc(C2CC2)nc(N)c1Br [Compound 13]
- Plant response rating, Nightshade [1, 11]: 0
- Plant response rating, Nightshade [1, 4]: 0
- Plant response rating, Nightshade ([1]; 125 g ai/ha, scale 0 to 100): 90
- Plant response rating, Nightshade ([1]; 250 g ai/ha, scale 0 to 100): 90
- Plant response rating, Bermudagrass [2, 12]: 0
- Plant response rating, Bermudagrass [2, 7]: 0
- Plant response rating, Bermudagrass [2, 8]: 0
- Plant response rating, Bermudagrass [2, 9]: 0
- Plant response rating, Ragweed [3, 12]: 45
- Plant response rating, Ragweed [3, 7]: 60
- Plant response rating, Ragweed [3, 8]: 70
- Plant response rating, Ragweed [3, 9]: 85

Compound: CCOC(=O)C(Cl)c1nc(C2CC2)nc(N)c1Br (centres unmarked) [Compound 31]
- Plant response rating, Nightshade [1, 11]: 0
- Plant response rating, Nightshade [1, 4]: 0
- Plant response rating, Nightshade ([1]; 125 g ai/ha, scale 0 to 100): 0
- Plant response rating, Bermudagrass [2, 12]: 0
- Plant response rating, Bermudagrass [2, 7]: 0
- Plant response rating, Bermudagrass [2, 8]: 0
- Plant response rating, Bermudagrass [2, 9]: 0
- Plant response rating, Ragweed [3, 12]: 5
- Plant response rating, Ragweed [3, 7]: 10
- Plant response rating, Ragweed [3, 8]: 60
- Plant response rating, Ragweed [3, 9]: 60

Compound: CN(C)N=Cc1nc(C2CC2)nc(N)c1Br [Compound 50]
- Plant response rating, Nightshade [1, 4]: 95
- Plant response rating, Nightshade ([1]; 125 g ai/ha, scale 0 to 100): 100
- Plant response rating, Nightshade ([1]; 250 g ai/ha, scale 0 to 100): 100
- Plant response rating, Nightshade ([1]; 500 g ai/ha, scale 0 to 100): 100
- Bermudagrass plant response rating ([2]; Postemergence, 62 g ai/ha): 50
- Bermudagrass plant response rating ([2]; Postemergence, 125 g ai/ha): 75
- Plant response rating, Bermudagrass [2, 5]: 90
- Plant response rating, Bermudagrass [2, 6]: 95
- Plant response rating, Bermudagrass [2, 8]: 0
- Plant response rating, Bermudagrass [2, 9]: 0
- Plant response rating, Bermudagrass [2, 10]: 95
- Ragweed plant response rating ([3]; Postemergence, 62 g ai/ha): 20
- Ragweed plant response rating ([3]; Postemergence, 125 g ai/ha): 45
- Plant response rating, Ragweed [3, 5]: 45
- Plant response rating, Ragweed [3, 6]: 80
- Plant response rating, Ragweed [3, 7]: 70
- Plant response rating, Ragweed [3, 8]: 85
- Plant response rating, Ragweed [3, 9]: 95
- Plant response rating, Ragweed [3, 10]: 100

Reference: patent publication US8802597B2, “Herbicidal pyrimidines” (E I du Pont de Nemours and Company, priority 2003, dated 2014)
